# Test results: patent US20080221074A1, “Drug Screen and Treatment Method” (priority 2006, published 2008)
# Key:
# [1] = system: human T lymphocytes (PBMC); assay: human mixed lymphocyte reaction (MLR); type: cell-based; details: 300 nM or 30 nM
# Excerpt: Human mixed lymphocyte reaction (MLR). The capacity of 3β,16α-dihydroxy-17-oxoandrostane, 3β,17β-dihydroxy-16-oxoandrostane, 17α-ethynylandrost-5-ene-3β,7β,17β-triol, and 17β-aminoandrost-5-ene-3β-ol to affect antigen specific stimulation in which human T lymphocytes respond to a specific foreign antigen (major histocompatibility complex).
# Blood samples were obtained from 3 (2 males, […]) fasting, healthy human volunteers of 23-31 years old. […] The subjects were bled between 9 and 10 AM to limit possible fluctuations in the circulating levels of hormones or cytokines that could have influenced the in vitro responses of their lymphocytes. Peripheral blood mononuclear cells (PBMC) were isolated by centrifugation on Ficoll-Hypaque (density 1.077, Biochrom AG, Berlin, Germany) gradients and resuspended in culture medium (RPMI 1640 supplemented with 2 mM L-glutamine, penicillin (100 U/mL) and streptomycin ([…]) (Invitrogen s.rl., Milan, Italy). Autologous (responder) inactivated plasma was used at 10%. Five hundred thousand responder PBMC (PBMCr) and 500,000 allogeneic irradiated (30 Gy) stimulator PBMC (PBMCs) were mixed at a ratio of 1:1 in 200 μL medium and cultured for 6 days in flat bottom 96 well plates (Nunc, Roskilde, Denmark) at a concentration of 300 nM or 30 nM for each of the 4 compounds. The compounds were dissolved in ethanol and then diluted to the desired concentration with culture medium leading to a final solution containing 0.01% of ethanol. This vehicle was used as control. Controls also included PBMCr and PBMCs cultured separately. During the last 8 hours of the culture period the PBMC were pulsed with […] [^3H] thymidine (Amersham, Milan, Italy). The cells were then harvested and radioactivity incorporation measured with a beta cell counter. The mean cpm of quadruplicate wells was calculated. Proliferation of T cells was expressed as a stimulation index: SI=cpm (PMBCs xPBMCr)/cpm (PBMCr)+cpm (PBMCs). Statistical analysis was performed using the Student's t test. The cpm obtained from quadruplicate of each test compound were compared to proliferative responses obtained in control PBMCr and PBMCs cultured in the presence of the vehicle. Differences were considered significant at p<0.05.
# [2] = system: progressive ischemia after thermal injury of the ear; assay: thermal injury model using mouse ear tissue; type: in vivo, Balb/c mice; details: injection in propylene glycol after burn
# Procedure: A thermal injury model using mouse ear tissue was used to characterize compounds for their capacity to treat inflammation associated with thermal trauma. […] Groups of Balb/c mice, approximately nine weeks old were given an identifying mark and then divided into control and treated subgroups. The thickness of the ear to be immersed in hot water was recorded, and then the entire ear of the anesthetized mouse was dipped into 52° C. water for 24 seconds. Each mouse was returned to its cage after an injection of either the propylene glycol vehicle (control) or 100 mg of compound in propylene glycol. Ear swelling changes were monitored on individual mice at pre-burn, and at various times after thermal injury. Ear swelling changes were monitored on individual mice at pre-injury and at 1, 3, 6, 9,12, 18, 24 and 48 hours after thermal injury. Animals were treated with 100 mg of dehydroepiandrosterone (DHEA) dissolved in propylene glycol.
# [3] = system: insulin sensitivity in db/db diabetic mice; assay: hyperinsulinemic-euglycemic clamp; type: in vivo; details: ^14C-2-deoxyglucose; p<0.05
# Procedure: Glucose lowering in 8 week old db/db diabetic mice. The hyperinsulinemic-euglycemic clamp protocol was conducted to measure insulin sensitivity in vivo. In this procedure, insulin was administered to raise the insulin concentration while glucose was infused to maintain euglycemia or a fixed, normal blood glucose level (about 180 mg/dL). […] The objective of this protocol was to investigate characterize the capacity of 17α-ethynylandrost-5-ene-3β,7β,17β-triol and androst-5-ene-3β,7β,16α,17β-tetrol to ameliorate systemic insulin resistance and improve whole body glucose disposal in the hyperinsulinemic-euglycemic clamp model. The degree of skeletal muscle and hepatic insulin sensitivity and tissue specific glucose uptake were also assessed. The animals were dosed daily by oral gavage for 14 days. On Day 10 of treatment catheters were implanted in the carotid artery and jugular vein. On the day of the clamp (day 14) the compound was administered at 7:30 am.
# Body weight and glucose concentration were assessed on day 0, 7 and day 14 of treatment. On day 14 a euglycemic hyperinsulinemic clamp was performed. Food was removed at 7:30 am at 10:30 a primed continuous infusion of [3-^3H]-glucose (0.05 μCi/min). A baseline blood sample was taken at 12:50 (−10 min) and at 1:00 (0 min) a euglycemic hyperinsulinemic clamp was initiated by administering 10 mU /kg/min of insulin. Glucose was infused at a variable rate to clamp the glucose concentration at ˜180 mg/dl. A bolus of [^14C]-2deoxyglucose was given at the end of the study to assess tissue specific glucose uptake. Plasma ^14C 2-deoxyglucose was assessed at 122, 125, 130, 135, 145 min. […]
# Analysis was conducted as follows. Plasma samples were deproteinized with Ba(OH)2 (0.3 N) and ZnSO4 (0.3 N), dried and radioactivity was assessed on scintillation counter (Packard TRICARB 2900 TR, Meriden, Conn.). […] One supernatant was directly counted to determine radioactivity from both [14C] […] A second aliquot was treated with Ba(OH)2 and ZnSO4 to remove ^14C DGP and any tracer incorporated into glycogen and then counted to determine radioactivity from free [^14C]DG(2). [^14C]DGP was calculated as the difference between the two aliquots. […] Rg, an index of tissue specific glucose uptake was calculated as previously described (E.W. Kraegen et al., Am. J. Physiol., 248:E353-E362, 1985). Whole body glucose turnover was calculated as the ratio of the ^3H glucose infusion rate (dpm/kg/min) and arterial plasma glucose specific activity (dpm/mg). Endogenous glucose production was calculated as the difference between the whole body glucose turnover and the exogenous glucose infusion rate (R. N. Bergman et al., Endocr. Rev., 6:45-86, 1985).
# NF-κB = assay: inhibition of NF-κB activation in NF-κB-bla THP-1 cells after LPS stimulation; type: cell-based, human; details: Homo sapiens, THP-1
# Excerpt: Inhibition of NF-κB in vitro. […] Activation of NF-κB increases expression of a number of genes that mediate inflammation. This protocol used human THP-1 cells, which are human mononuclear blood cells with a monocyte phenotype. The cell line, referred to as NF-κB-bla THP-1, contained a β-lactamase reporter gene under the control of the NF-kB response element (Invitrogen, CellSensor™, product No. K1176). In this cell line, the β-lactamase reporter gene is stably integrated in the THP-1 cells. This cell line was used to detect agonists or antagonists of the NF-κB signaling pathway. These NF-κB-bla THP-1 cells respond to the presence of tumor necrosis factor alpha (TNFα) or bacterial lipopolysaccharide (LPS) by increased expression of the β-lactamase reporter gene. The level of β-lactamase enzyme activity was measured by fluorescence resonance energy transfer ratiometric detection. TNFα and LPS are both potent inflammation-inducing agents that activate NF-κB in THP1 cells. In this assay, compounds that decrease NF-κB activity, and thus β-lactamase, in the presence of TNFα or LPS are exerting an anti-inflammation activity.
# The NF-κB-bla THP-1 cells were maintained by passaging or feeding as needed. […] The cells were plated at 20,000 cells/well in a 384-well Black-wall, clear bottom assay plates (Costar#3712-TC low fluorescence background plates) approximately 24 hours before adding either TNFα at 10 ng/mL or LPS at 0.2 ng/mL to activate NF-κB.
# The assays were usually conducted 2-4 times for each compound and the values shown below are averages for each compound.
# [4] = system: ionizing radiation exposure; assay: survival after lethal total body irradiation (10 Gy); type: in vivo, female B6D2F1 mice
# Procedure: Treatment of ionizing radiation exposure. The effect of selected F1Cs on survival of lethally-irradiated female B6D2F1 mice were compared to control animals treated with vehicle alone. […] For Group 4, test article was administered as a 50 μL volume, by intramuscular injection for three consecutive days. The formulation was a a suspension containing 0.1% w/v carboxymethyl-cellulose, 0.9% w/v sodium chloride and 0.05% v/v phenol. The formulations were agitated to uniformly resuspend the Fl C before syringing, and injected into animals within a few minutes of drawing into the syringe to prevent settling in the syringe.
# The groups of animals were treated as follows. […] The number of surviving animals is shown for day 6, 7, 12 and 21.
# EAE = assay: experimental allergic encephalomyelitis (EAE), PLP 139-151; type: in vivo, female SJL/J mice; details: 5 mg/kg daily oral gavage; through day 26
# Excerpt: Treatment of autoimmune neurodegeneration. Three compounds, 17β-aminoandrost-5-ene-3β-ol, 17β-dimethylaminoandrost-5-ene-3β-ol and 17β-methylaminoandrost-5-ene-3β-ol were characterized for their capacity to ameliorate experimental allergic encephalomyelitis (EAE) in mice. This demyelinating condition is extensively used as a model for multiple sclerosis in humans and for testing of new therapies for treating multiple sclerosis, e.g., B. F. Bebo Jr. et al., J. Neurosci. Res. 52:420-426 1998; R. R. Voskuhl et al., Neuroscientist, 7:258-270 2001; H. Offner et al., J. Neuroimmunol., 130:128-139 2002.
# In this protocol, the compounds were administered to female SJL/J mice by oral gavage at the onset of disease symptoms. An antigen was used to initiate the EAE condition in the mice. […] Immunization with this peptide antigen initiates an autoimmune Thl mediated demyelinating disease of the central nervous system. The antigen was prepared by solid phase synthesis and purified by high-performance liquid chromatography. […] The immunization protocol was subcutaneous injection over four sites on the hind flank on day 0. After immunization. the mice were assessed daily for clinical signs of EAE using the following scale: 0=no clinical signs or symptoms; 1=limp tail; 2=mild hind limb weakness and limp tail; 3=moderate hind limb weakness and limp tail or mild ataxia; 4=severe hind limb weakness and mild forearm weakness with moderate ataxia; 5=paraplegia with no more than moderate forelimb weakness; 6=paraplegia with severe forelimb weakness or severe ataxia or moribund condition.
# Mice in the vehicle control group began to show observable symptoms of EAE at about 10-11 days after immunization with the PLP antigen, which is typical for the EAE disease model. The animals were dosed daily with 17β-aminoandrost-5-ene-3β-ol, 17β-dimethylaminoandrost-5-ene-3β-ol or 17β-methylaminoandrost-5-ene-3β-ol by oral gavage beginning at day 1, which was 1 day after immunization.
smiles,measurement,setting,value
"C[C@]12CC[C@H]3[C@@H](CCC4C[C@@H](O)CC[C@@]43C)[C@@H]1CC(=O)[C@@H]2O (stereo partly drawn) [3β,17β-dihydroxy-16-oxoandrostane]",immune suppression (inhibition of the MLR),[1],not appreciably immune suppressive
C[C@]12CC[C@H](O)CC1=CC[C@@H]1[C@@H]2CC[C@]2(C)C(=O)[C@H](O)C[C@@H]12 [16α-hydroxydehydroepiandrosterone],protection against progressive ischemia after thermal injury to the ear,[2],less protective
"CN(CCOc1ccc(CC2SC(=O)NC2=O)cc1)c1ccccn1.O=C(O)/C=C\C(=O)O (stereo not drawn) [rosiglitazone, rosiglitazone maleate, reference compound]",glucose uptake in the gastrocnemius muscle,[3],more effective
"C[C@]12CC[C@H]3[C@@H](CC=C4C[C@@H](O)CC[C@@]43C)[C@@H]1CC[C@@H]2O [androst-5-ene-3β,17β-diol]",IC50,NF-κB,0.014 nM
same,number of surviving animals (groups of 12),"[4]; 0.6 mg i.m. daily for 3 days, day 6",12
same,number of surviving animals (groups of 12),"[4]; 0.6 mg i.m. daily for 3 days, day 7",12
same,number of surviving animals (groups of 12),"[4]; 0.6 mg i.m. daily for 3 days, day 12",11
same,number of surviving animals (groups of 12),"[4]; 0.6 mg i.m. daily for 3 days, day 21",9
same,number of surviving animals (groups of 12),"[4]; 0.6 mg s.c. daily for 3 days, day 6",12
same,number of surviving animals (groups of 12),"[4]; 0.6 mg s.c. daily for 3 days, day 7",11
same,number of surviving animals (groups of 12),"[4]; 0.6 mg s.c. daily for 3 days, day 12",10
same,number of surviving animals (groups of 12),"[4]; 0.6 mg s.c. daily for 3 days, day 21",7
same,number of surviving animals (groups of 12),"[4]; 3.0 mg s.c. daily for 3 days, day 6",12
same,number of surviving animals (groups of 12),"[4]; 3.0 mg s.c. daily for 3 days, day 7",12
same,number of surviving animals (groups of 12),"[4]; 3.0 mg s.c. daily for 3 days, day 12",9
same,number of surviving animals (groups of 12),"[4]; 3.0 mg s.c. daily for 3 days, day 21",7
same,protection against progressive ischemia after thermal injury to the ear,[2],protected treated animals against much of the ischemic consequences
CN[C@H]1CC[C@H]2[C@@H]3CC=C4C[C@@H](O)CC[C@]4(C)[C@H]3CC[C@]12C [17β-methylaminoandrost-5-ene-3β-ol],clinical severity of EAE symptoms,EAE,reduced the clinical severity
C[C@]12CC[C@H](O)CC1=CC[C@@H]1[C@@H]2CC[C@]2(C)C(=O)[C@H](Br)C[C@@H]12 [16α-bromodehydroepiandrosterone],protection against progressive ischemia after thermal injury to the ear,[2],protected treated animals against much of the ischemic consequences
C[C@]12CC[C@H](O)CC1=CC[C@@H]1[C@@H]2CC[C@]2(C)C(=O)[C@H](Cl)C[C@@H]12 [16α-chlorodehydroepiandrosterone],protection against progressive ischemia after thermal injury to the ear,[2],only slightly protective
CN(C)[C@H]1CC[C@H]2[C@@H]3CC=C4C[C@@H](O)CC[C@]4(C)[C@H]3CC[C@]12C [17β-dimethylaminoandrost-5-ene-3β-ol],clinical severity of EAE symptoms,EAE,reduced the clinical severity
